In ChEMBL document CHEMBL3865792, “Antioxidant and antitumor activity of trolox, trolox succinate, and α-tocopheryl succinate conjugates with nitroxides” (Eur J Med Chem, 2016):

Tests used:
[1] = Ratio of IC50 for human MT4 cells to concentration causing antioxidant activity in Salmonella typhimurium TA102 harboring […] mutant; type: functional
[2] = tested on: Salmonella enterica subsp. enterica serovar Typhimurium; test: Antioxidant activity in Salmonella typhimurium TA102 harboring […] mutant assessed as inhibition of t-BuO2H-dependant mutant formation at 3 uM preincubated with compound followed by t-BuO2H addition after 48 hrs by Ames test; type: functional
[3] = Ratio of IC50 for human HEPG2 cells to concentration causing antioxidant activity in Salmonella typhimurium TA102 harboring […] mutant; type: functional
[4] = Genotoxicity in Escherichia coli PQ37 expressing lacZ gene assessed as ratio of inducible beta-galactosidase activity to alkaline phosphatase activity at 30 mM after 2 hrs by SOS-chromotest relative to control; type: toxicity; conditions: Escherichia coli PQ37 cells expressing lacZ gene, read-out: FC
[5] = tested on: Salmonella typhimurium; test: Genotoxicity in Salmonella typhimurium TA102 harboring […] mutant assessed as frequency of reversion from histidine auxotrophy to prototrophy at 30 mM after 48 hrs by Ames test (reference value: 209 +/- 10 No _unit); type: toxicity, organism-based; conditions: salmonella enterica subsp. enterica serovar typhimurium, 30000 µM
[6] = Cytotoxicity against human RPMI8226 cells assessed as reduction in cell viability after 72 hrs by MTT assay; type: functional, cell-based; conditions: RPMI-8226, 72 h
[7] = Cytotoxicity against human MCF7 cells assessed as reduction in cell viability after 72 hrs by MTT assay; type: functional, cell-based; conditions: MCF7, 72 h
[8] = Cytotoxicity against human MT4 cells assessed as reduction in cell viability after 72 hrs by MTT assay; type: functional, cell-based; conditions: MT4, 72 h
[9] = Cytotoxicity against human MCF7 cells assessed as reduction in cell viability at 300 uM after 72 hrs by MTT assay; type: functional; conditions: MCF7, 72 h
[10] = Ratio of IC50 for human U937 cells to concentration causing antioxidant activity in Salmonella typhimurium TA102 harboring […] mutant; type: functional, U-937
[11] = tested on: Salmonella enterica subsp. enterica serovar Typhimurium; test: Antioxidant activity in Salmonella typhimurium TA102 harboring […] mutant assessed as inhibition of t-BuO2H-dependant mutant formation at 0.3 uM preincubated with compound followed by t-BuO2H addition after 48 hrs by Ames test; type: functional
[12] = Cytotoxicity against human U937 cells assessed as reduction in cell viability after 72 hrs by MTT assay; type: functional, cell-based; conditions: U-937, 72 h
[13] = Ratio of IC50 for human CEM13 cells to concentration causing antioxidant activity in Salmonella typhimurium TA102 harboring […] mutant; type: functional
[14] = Cytotoxicity against mouse LMTK cells assessed as reduction in cell viability after 72 hrs by MTT assay; type: toxicity
[15] = Ratio of IC50 for human MCF7 cells to concentration causing antioxidant activity in Salmonella typhimurium TA102 harboring […] mutant; type: functional
[16] = Cytotoxicity against human CEM13 cells assessed as reduction in cell viability after 72 hrs by MTT assay; type: functional, cell-based; conditions: CEM13, 72 h
[17] = Cytotoxicity against human HepG2 cells assessed as reduction in cell viability after 72 hrs by MTT assay; type: functional, cell-based; conditions: HepG2, 72 h
[18] = Ratio of IC50 for human RPMI8226 cells to concentration causing antioxidant activity in Salmonella typhimurium TA102 harboring […] mutant; type: functional, RPMI-8226
[19] = Cytotoxicity against mouse LMTK cells assessed as reduction in cell viability at 300 uM after 72 hrs by MTT assay; type: toxicity; conditions: read-out: INH
[20] = tested on: Salmonella enterica subsp. enterica serovar Typhimurium; test: Antioxidant activity in Salmonella typhimurium TA102 harboring […] mutant assessed as inhibition of t-BuO2H-dependant mutant formation at 30 uM preincubated with compound followed by t-BuO2H addition after 48 hrs by Ames test; type: functional
[21] = Cytotoxicity against hamster AG17-1 cells assessed as reduction in cell viability after 72 hrs by MTT assay; type: toxicity, cell-based, Cricetulus griseus; conditions: Chinese hamster
[22] = Cytotoxicity against human CEM13 cells assessed as reduction in cell viability at 300 uM after 72 hrs by MTT assay; type: functional; conditions: CEM13, 72 h
[23] = Cytotoxicity against human HepG2 cells assessed as reduction in cell viability at 300 uM after 72 hrs by MTT assay; type: functional; conditions: HepG2, 72 h
[24] = Cytotoxicity against hamster AG17-1 cells assessed as reduction in cell viability at 300 uM after 72 hrs by MTT assay; type: toxicity, cell-based, Cricetulus griseus; conditions: Chinese hamster, read-out: INH

SMILES | Ratio [1] | inhibition [2] [%] | Ratio [3] | fold induction at 2 h, 30000 µM [4] | Activity [5] | IC50 [6] [µM] | IC50 [7] [µM] | IC50 [8] [µM] | Ratio [10] | inhibition [11] [%] | IC50 [12] [µM] | Ratio [13] | IC50 at 72 h [14] [µM] | Ratio [15] | IC50 [16] [µM] | IC50 [17] [µM] | Ratio [18] | inhibition [20] [%] | IC50 at 72 h [21] [µM] | inhibition at 300 µM [22] [%] | further results
Cc1c(C)c2c(c(C)c1OC(=O)CCC(=O)NCC1CC(C)(C)N([O])C1(C)C)CCC(C)(C(=O)NCC1CC(C)(C)N([O])C1(C)C)O2 (centres undefined) | 100 - 1000 | 23 | 100 - 1000 | 1.2 | 209 | 70 | > 300 | 114 | 100 - 1000 | 13 | 61 | 100 - 1000 | > 300 | 100 - 1000 | 107 | 176 | 100 - 1000 | 20 | 50 | – | inhibition at 300 µM [9]: 32%; cytotoxicity at 72 h, 300 µM [19]: 10%
Cc1c(C)c2c(c(C)c1O)CCC(C)(C(=O)NC1CC(C)(C)N([O])C1(C)C)O2 (centres undefined) | 100 - 1000 | 57.6 | 100 - 1000 | 1.2 | 221 | 58 | 58 | 144 | 100 - 1000 | 55.2 | 98 | 100 - 1000 | > 300 | 100 - 1000 | > 300 | 145 | 100 - 1000 | 62 | 194 | 45 | cytotoxicity at 72 h, 300 µM [19]: 32%
Cc1c(C)c2c(c(C)c1OC(=O)CCC(=O)NC1CC(C)(C)N([O])C1(C)C)CC[C@@](C)(CCC[C@H](C)CCC[C@H](C)CCCC(C)C)O2 (some centres undefined) | 100 - 1000 | 29 | 100 - 1000 | 0.8 | 227 | 55 | 95 | 87 | 100 - 1000 | 21 | 69 | 100 - 1000 | > 300 | 100 - 1000 | > 300 | > 300 | 100 - 1000 | 12 | > 300 | 34 | inhibition at 300 µM [23]: 38%; cytotoxicity at 72 h, 300 µM [24]: 38%; cytotoxicity at 72 h, 300 µM [19]: 30%
Cc1c(C)c2c(c(C)c1OC(=O)CCC(=O)NC1CC(C)(C)N([O])C(C)(C)C1)CCC(C)(C(=O)NC1CC(C)(C)N([O])C(C)(C)C1)O2 (centres undefined) | 100 - 1000 | 25 | 100 - 1000 | 1 | 203 | 68 | 62 | 41 | 100 - 1000 | 7 | 72 | 100 - 1000 | 133 | 100 - 1000 | > 300 | 42 | 100 - 1000 | 25 | 54 | 33 | –
Cc1c(C)c2c(c(C)c1O)CCC(C)(C(=O)NC1CC(C)(C)N([O])C(C)(C)C1)O2 (centres undefined) | 100 - 1000 | 21.5 | 100 - 1000 | 1.4 | 218 | 39 | 58 | 55 | 100 - 1000 | 11 | 161 | 100 - 1000 | 252 | 100 - 1000 | > 300 | 54 | 100 - 1000 | 4.1 | 186 | 32 | –
Cc1c(C)c2c(c(C)c1OC(=O)CCC(=O)NCC1CC(C)(C)N([O])C1(C)C)CC[C@@](C)(CCC[C@H](C)CCC[C@H](C)CCCC(C)C)O2 (some centres undefined) | 100 - 1000 | 4 | 100 - 1000 | 1 | 215 | 217 | 260 | 92 | 100 - 1000 | 1 | 137 | 100 - 1000 | > 300 | 100 - 1000 | 105 | > 300 | 100 - 1000 | 24 | > 300 | – | inhibition at 300 µM [23]: 10%; cytotoxicity at 72 h, 300 µM [24]: 32%; cytotoxicity at 72 h, 300 µM [19]: 7%
Cc1c(C)c2c(c(C)c1O)CCC(C)(C(=O)NCC1CC(C)(C)N([O])C1(C)C)O2 (centres undefined) | 100 - 1000 | 21.5 | 100 - 1000 | 1 | 225 | 70 | > 300 | 231 | 100 - 1000 | 26 | 134 | 100 - 1000 | 300 | 100 - 1000 | > 300 | > 300 | 100 - 1000 | 17.7 | 192 | 32 | inhibition at 300 µM [23]: 38%; inhibition at 300 µM [9]: 34%; cytotoxicity at 72 h, 300 µM [19]: 25%
Cc1c(C)c2c(c(C)c1OC(=O)CCC(=O)O)CC[C@@](C)(CCC[C@H](C)CCC[C@H](C)CCCC(C)C)O2 [(+)-ALPHA-TOCOPHERYL SUCCINATE] | – | 63.2 | – | 1.1 | 216 | 63 | 57 | 66 | – | 56 | 113 | – | 73 | – | > 300 | 245 | – | 63.6 | 50 | 40 | –
